Source: the NIST ThermoML archive (doi:10.1016/j.tca.2012.01.007)
± gives the expanded uncertainty stated by the source.

What was measured:
[1] = wn = mass fraction of the nth substance listed; conditions: 101 kPa, Liquid, Vibrating tube method
[2] = 101 kPa, Liquid, Vibrating tube method

O [water] + OCCNCCO
[1], w2 = 0
Conditions	mass density [kg/m3]
283.15 K	999.964 ± 0.48
293.15 K	998.557 ± 0.48
303.15 K	995.999 ± 0.48
313.15 K	992.57 ± 0.48
323.15 K	988.391 ± 0.47
333.15 K	983.453 ± 0.47
343.14 K	977.483 ± 0.47
353.14 K	972.2 ± 0.47

CCO [ethanol] + OCCNCCO
[1], w2 = 0
Conditions	mass density [kg/m3]
278.15 K	802.686 ± 0.12
283.15 K	798.458 ± 0.13
293.14 K	789.938 ± 0.13
303.14 K	781.332 ± 0.13
313.16 K	772.577 ± 0.14
323.14 K	763.677 ± 0.14
333.14 K	754.521 ± 0.14
343.15 K	745.054 ± 0.15
348.14 K	740.206 ± 0.15

CCO [ethanol]
[2]
Conditions	mass density [kg/m3]
278.15 K	802.686 ± 0.12
283.15 K	798.458 ± 0.13
293.14 K	789.938 ± 0.13
303.14 K	781.332 ± 0.13
313.16 K	772.577 ± 0.14
323.14 K	763.677 ± 0.14
333.14 K	754.521 ± 0.14
343.15 K	745.054 ± 0.15
348.14 K	740.206 ± 0.15

OCCNCCO [diethanolamine]
[2]
Conditions	mass density [kg/m3]
278.14 K	1107.05 ± 0.32
283.14 K	1103.88 ± 0.31
293.15 K	1097.51 ± 0.31
303.14 K	1091.06 ± 0.3
313.14 K	1084.49 ± 0.3
323.14 K	1077.78 ± 0.29
333.14 K	1071 ± 0.29
343.14 K	1064.14 ± 0.28
348.14 K	1060.68 ± 0.28
353.15 K	1056.83 ± 0.28

O [water]
[2]
Conditions	mass density [kg/m3]
283.15 K	999.964 ± 0.48
293.15 K	998.557 ± 0.48
303.15 K	995.999 ± 0.48
313.15 K	992.57 ± 0.48
323.15 K	988.391 ± 0.47
333.15 K	983.453 ± 0.47
343.14 K	977.483 ± 0.47
353.14 K	972.2 ± 0.47

OCCNCCO [diethanolamine] + CO
[1]
Conditions	mass density [kg/m3]
283.14 K, w1 = 0.5999	976.523 ± 0.2
283.15 K, w1 = 0.1	827.828 ± 0.15
283.15 K, w1 = 0.2	855.383 ± 0.15
283.15 K, w1 = 0.3	883.986 ± 0.17
283.15 K, w1 = 0.3999	913.669 ± 0.19
283.15 K, w1 = 0.5002	945.053 ± 0.22
283.15 K, w1 = 0.8001	1038.06 ± 0.23
283.15 K, w1 = 0.831	1047.98 ± 0.24
283.15 K, w1 = 0.9004	1070.41 ± 0.27
283.15 K, w1 = 0.9209	1077.24 ± 0.28
283.16 K, w1 = 0.6997	1006.57 ± 0.2
293.14 K, w1 = 0.1	818.746 ± 0.15
293.14 K, w1 = 0.9209	1070.68 ± 0.27
293.15 K, w1 = 0.2	846.577 ± 0.16
293.15 K, w1 = 0.3	875.502 ± 0.17
293.15 K, w1 = 0.3999	905.478 ± 0.2
293.15 K, w1 = 0.5002	937.232 ± 0.22
293.15 K, w1 = 0.5999	969.048 ± 0.21
293.15 K, w1 = 0.6997	999.095 ± 0.2
293.15 K, w1 = 0.8001	1030.93 ± 0.22
293.15 K, w1 = 0.9004	1063.79 ± 0.26
293.16 K, w1 = 0.831	1040.93 ± 0.23
303.14 K, w1 = 0.1	809.6 ± 0.15
303.14 K, w1 = 0.5999	961.458 ± 0.21
303.15 K, w1 = 0.2	837.727 ± 0.16
303.15 K, w1 = 0.3	866.962 ± 0.17
303.15 K, w1 = 0.3999	897.232 ± 0.2
303.15 K, w1 = 0.5002	929.334 ± 0.23
303.15 K, w1 = 0.6997	991.41 ± 0.2
303.15 K, w1 = 0.8001	1023.79 ± 0.22
303.15 K, w1 = 0.831	1033.88 ± 0.23
303.15 K, w1 = 0.9004	1057.05 ± 0.26
303.15 K, w1 = 0.9209	1064.03 ± 0.27
313.14 K, w1 = 0.1	800.368 ± 0.16
313.15 K, w1 = 0.2	828.795 ± 0.16
313.15 K, w1 = 0.3	858.34 ± 0.18
313.15 K, w1 = 0.3999	888.909 ± 0.2
313.15 K, w1 = 0.5002	921.353 ± 0.23
313.15 K, w1 = 0.5999	953.776 ± 0.21
313.15 K, w1 = 0.6997	983.97 ± 0.2
313.15 K, w1 = 0.8001	1016.6 ± 0.21
313.15 K, w1 = 0.831	1026.78 ± 0.23
313.15 K, w1 = 0.9004	1050.22 ± 0.25
313.15 K, w1 = 0.9209	1057.29 ± 0.26
323.14 K, w1 = 0.1	791.018 ± 0.16
323.15 K, w1 = 0.2	819.75 ± 0.17
323.15 K, w1 = 0.3	849.609 ± 0.18
323.15 K, w1 = 0.3999	880.486 ± 0.2
323.15 K, w1 = 0.5002	913.261 ± 0.23
323.15 K, w1 = 0.5999	945.981 ± 0.21
323.15 K, w1 = 0.6997	976.456 ± 0.2
323.15 K, w1 = 0.8001	1009.28 ± 0.21
323.15 K, w1 = 0.831	1019.63 ± 0.22
323.15 K, w1 = 0.9004	1043.29 ± 0.25
323.15 K, w1 = 0.9209	1050.47 ± 0.26
333.14 K, w1 = 0.1	781.504 ± 0.16
333.14 K, w1 = 0.5999	938.046 ± 0.21
333.14 K, w1 = 0.9209	1043.49 ± 0.25
333.15 K, w1 = 0.2	810.556 ± 0.17
333.15 K, w1 = 0.3	840.739 ± 0.18
333.15 K, w1 = 0.3999	871.934 ± 0.2
333.15 K, w1 = 0.5002	905.025 ± 0.23
333.15 K, w1 = 0.6997	968.833 ± 0.2
333.15 K, w1 = 0.8001	1002.21 ± 0.21
333.15 K, w1 = 0.831	1012.39 ± 0.22
333.15 K, w1 = 0.9004	1036.23 ± 0.24

CO [methanol] + OCCNCCO
[1], w2 = 0
Conditions	mass density [kg/m3]
283.15 K	801.436 ± 0.15
293.15 K	792.069 ± 0.15
303.15 K	782.606 ± 0.15
313.15 K	773.049 ± 0.15
323.15 K	763.363 ± 0.16
333.15 K	753.506 ± 0.16

CO [methanol]
[2]
Conditions	mass density [kg/m3]
283.15 K	801.436 ± 0.15
293.15 K	792.069 ± 0.15
303.15 K	782.606 ± 0.15
313.15 K	773.049 ± 0.15
323.15 K	763.363 ± 0.16
333.15 K	753.506 ± 0.16
